Data published in patent publication US12157745B2, “Heterocyclic systems and pharmaceutical compositions thereof” (University of Sharjah, priority 2018, dated 2024).

Experiments:
MCF-7 cells = assay: Cell cycle analysis (propidium iodide, flow cytometry); type: cell-based; conditions: after 16, 24, 48, and 72 hours of treatment
Description: Apoptosis studies: The molecular effect of compound it was evaluated by investigating its apoptotic (FIG. 5) and cell cycle arresting potentials (FIGS. 6A and 6B). Compound it arrests the cells at G0/G1 phase in MCF-7 cells (>15%) with respect to control cells after 16, 24, 48, and 72 hours of treatment.
Cell cycle arresting potentials of compound it were analyzed by an already established protocol with minor modifications. In brief, 3×10^6 cells of MCF-7, SKBR3, and HCT116 were seeded and incubated overnight in a T75 cm^2 flask before treating with IC50 dose of compound it for […]. The cells which were devoid of any treatments served as controls for each group. After respective treatment hours, the cells were washed two times with PBS and fixed with ice cold ethanol (70%) overnight. The cells were then washed two times with cold PBS and 1×10^6 cells were then counted and incubated with 1 ml RNAase (100 μg/mL) for 30 min at 37° C. The cell pellet was further added with 200 μl of propidium iodide (50 μg/mL) and immediately analyzed by a flow cytometer (BD, Accuri C6).

C-Myc oncogenic protein = assay: Western blot, C-Myc expression; type: cell-based; conditions: all the tested cell lines
Description: (§1) Over-expression of this oncogene could result in tumor cell proliferation and migration and therefore its inhibition may halt tumor growth. Other pro-apoptotic (Bid, Bax, caspase-3 & -9) and anti-apoptotic (Bcl-xL) proteins were also modulated by compound it as evident from western blot analysis and as confirmed by annexin V study (FIG. 7).
(§2) The MCF-7, SKBR3 and HCT116 total cell lysate were prepared after 24 hours of treatment with compound it at IC50 and DIC50 doses by using 1× laemmli buffer. Total protein concentration was then estimated for each sample and 15-30 μg of protein lysate were loaded equally on 12% SDS-PAGE gel in order to detect various proteins expression levels. In short, the membrane was incubated with different primary antibodies (as mentioned in above section) (1:1000) overnight after blocking with 5% non-fat milk solution for 1 hour. The membrane was then re-probed with respective mouse/rabbit secondary antibodies (1:2000) for 1 h, and later developed by enhanced chemiluminescence (ECL) method by using a Chemidoc MP (BioRad, Germany).

[1] = test system: Bid, Bax, caspase-3 & -9, Bcl-xL; assay: Western blot and annexin V, pro- and anti-apoptotic proteins; type: cell-based; conditions: western blot, confirmed by annexin V study
Description: as §1, §2
The apoptotic level was measured using a kit method as per supplier's protocol. […] 2×10^6 cells were counted and re-suspended in 1 mL of binding buffer (1×). […] 400 μL of IX binding buffer was finally added to the cells and analyzed immediately by using by a flow cytometer (BD, Accuri C6).

p53 = assay: Western blot, p53 expression; type: cell-based; conditions: breast cancer cells
Description: as §2

p21 = assay: Western blot, p21 expression; type: cell-based; conditions: HCT116 colon cancer cells
Description: as §2

H2AX = assay: DNA damage study, H2AX phosphorylation (western blot); type: cell-based; conditions: SKBr3 cells; IC50 and Double IC50 treatments
Text: DNA damage studies: One of the main properties of any efficient chemotherapeutic drug is to induce DNA damage in tumor cells either directly or indirectly by generating harmful DNA crosslinks, which can lead to apoptosis and impact the cell by disrupting gene function and/or impairing transcription, DNA replication, and cell proliferation. To gain additional knowledge of compound it's anticancer properties, its mechanism of action to induce DNA damage was studied in breast and colon cancer cells (FIG. 8). One of the critical post-translational modifications of chromatin is phosphorylation of multiple proteins involved in DNA damage pathway and one of the earliest events during DNA double strand break is the phosphorylation of Ser139 on the specialized histone called H2AX, which is then referred to as γ-H2AX.
as §2, with “The membrane was then re-probed with respective mouse/rabbit secondary antibodies (1:2000) for 1 h, and later developed by enhanced chemiluminescence (ECL) method by using a Chemidoc MP (BioRad, Germany).” left out

p-Chk2 = assay: DNA damage study, p-Chk2 expression (western blot); type: cell-based
Description: However, recruitment of phosphatidylinositol-3-kinase (PI3K) family members to the site of DNA damage is the first step of DNA damage response mechanisms and the phosphorylation of ataxia telangiectasia-mutated (ATM) or ATM-Rad3-related (ATR) kinases often follows. […] Overall, compound it was able to induce DNA damage in an ATR-Chk2 dependent pathway in aggressive breast cancer phenotypes.
as §2

glutathione reductase = biological target: T1, glutathione reductase (Homo sapiens, UniProt P00390); assay: DARTS proteomic assay; type: binding; conditions: dose-dependent manner, FIG. 12
T1 construct: HEK293T cells were lysed using M-PER; endogenous in cells; host or cells: HEK293T lysate
T1 sequence (P00390 44-522): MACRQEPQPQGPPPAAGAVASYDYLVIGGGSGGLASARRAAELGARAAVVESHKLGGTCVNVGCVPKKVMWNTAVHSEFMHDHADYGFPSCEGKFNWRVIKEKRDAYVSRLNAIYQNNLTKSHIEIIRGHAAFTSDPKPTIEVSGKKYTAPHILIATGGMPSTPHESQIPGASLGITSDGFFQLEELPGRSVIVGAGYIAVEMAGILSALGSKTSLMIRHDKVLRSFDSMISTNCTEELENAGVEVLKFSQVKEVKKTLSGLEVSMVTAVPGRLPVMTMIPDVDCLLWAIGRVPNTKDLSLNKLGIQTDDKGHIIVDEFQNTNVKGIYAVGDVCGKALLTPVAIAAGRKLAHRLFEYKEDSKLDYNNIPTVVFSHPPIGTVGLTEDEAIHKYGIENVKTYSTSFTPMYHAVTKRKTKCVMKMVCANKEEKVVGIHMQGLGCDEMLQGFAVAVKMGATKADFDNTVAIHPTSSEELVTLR
Description: (§3) The unique properties of compound it prompted an in-depth analysis to explore its potential novel targets.
(§4) A DARTS assay was used to assess the binding of compound 1t. HEK293T cells were lysed using M-PER (Thermo Scientific, Inc.) supplemented with protease and phosphatase inhibitors (Lysis buffer). 4.7 mg/mL of protein and TNC buffer (10 mM Tris, 140 mMNaCl, 5 mM CaCl2)) was added, compound it was diluted in DMSO to 3 different concentrations (0.01 μM, 0.1 μM, 1 μM) and incubated for one hour at room temperature. Trypsin (Promega) was added and incubated for 3 hours at 37° C. Thereafter, M-PER lysis buffer was added and the samples were concentrated with Microcon 10K centrifugal filters. The proteins were identified by gel electrophoresis liquid chromatography mass spectroscopy (GelLCMS).

transketolase = biological target: T2, transketolase (Homo sapiens, UniProt P29401); assay: DARTS proteomic assay; type: binding; conditions: dose-dependent manner, FIG. 10
T2 construct: HEK293T cells were lysed using M-PER; endogenous in cells; host or cells: HEK293T lysate
T2 sequence (P29401 whole entry): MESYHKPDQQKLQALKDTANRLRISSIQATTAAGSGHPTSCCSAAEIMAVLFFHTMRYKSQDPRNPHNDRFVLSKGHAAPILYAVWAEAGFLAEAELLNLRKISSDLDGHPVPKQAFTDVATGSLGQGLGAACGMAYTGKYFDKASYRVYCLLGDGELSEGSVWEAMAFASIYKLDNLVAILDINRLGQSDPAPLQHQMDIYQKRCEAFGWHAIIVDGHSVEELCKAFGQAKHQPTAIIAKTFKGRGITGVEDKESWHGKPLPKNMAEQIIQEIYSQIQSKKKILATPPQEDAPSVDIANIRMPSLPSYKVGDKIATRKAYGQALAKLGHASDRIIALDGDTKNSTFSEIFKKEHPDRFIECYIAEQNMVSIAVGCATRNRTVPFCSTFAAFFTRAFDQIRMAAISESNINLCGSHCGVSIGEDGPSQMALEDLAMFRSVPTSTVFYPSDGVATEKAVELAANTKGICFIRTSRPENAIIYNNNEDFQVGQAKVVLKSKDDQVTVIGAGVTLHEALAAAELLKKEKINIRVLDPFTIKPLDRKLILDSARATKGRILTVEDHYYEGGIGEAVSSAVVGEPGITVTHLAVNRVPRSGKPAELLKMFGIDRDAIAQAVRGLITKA
Text: as §3
As TKT reaction plays a pivotal role in pentose phosphate pathway, inhibition of TKT will suppress the pentose phosphate pathway and interrupt the synthesis of coenzymes, ATP, CoA, NAD(P)+, FAD, RNA, and DNA in cancer cells. The over-expressed TKT is reported in many cancer cells, tissues, and patients, wherein it regulates proliferation and viability. A strategy of silencing TKT has shown significant effect in reducing tumor burden in gastric cancer cells. Recent studies have shown that targeting TKT has clinical relevance in cancer therapy, as it can counteract the effect of oxidative stress, a critical factor in cancer development.
as §4, with “The proteins were identified by gel electrophoresis liquid chromatography mass spectroscopy (GelLCMS).” left out

Modulation of glutathione reductase function (glutathione reductase): modulated the functions
Affinity on transketolase (transketolase): strong affinity
SMILES: CC1(C)[C@H]2COc3ccc4ccccc4c3[C@H]2N=C2SC(c3ccccc3)=C(c3ccccc3)N21 [Compound 1t]
Cells arrested at G0/G1 phase with respect to control cells (MCF-7 cells): > 15%
C-Myc oncogenic protein (C-Myc oncogenic protein): inhibited
Pro-apoptotic (Bid, Bax, caspase-3 & -9) and anti-apoptotic (Bcl-xL) proteins [1]: modulated
Expression of p53 (p53): up-regulation
Expression of p21 (p21): overexpressed
H2AX phosphorylation (H2AX): induced H2AX phosphorylation
Checkpoint kinase p-Chk2 expression (p-Chk2): elevated levels
